For test [1], the system named is A431, MCF-7, HeLa, HepG2, PC3, SKOV3, A549, U251, K562, and Caco-2 tumor cells. As to the kind of experiment: MTT assay, tumor cell growth with serine/glycine at different levels. The following applies: low serine level or low glycine level compared to high serine and glycine levels; 48 hours culture. Type of test: cell-based. Background: Formazan colour is commonly taken as a measure of viable cells.

For test [2] the test system is unchanged. As to the kind of experiment: Transwell migration assay with serine/glycine at different levels. Type of test: cell-based. As to conditions: low serine level or low glycine level compared to high serine and glycine levels.

Take `N[C@@H](CO)C(=O)O` [serine]: the “cell growth (MTT, growth %)” value in test [1] was “grew slowly”. Also, the “migration capability (Transwell, metastasis %)” value in test [2] is “relatively high migration capability”.
With `NCC(=O)O` [glycine], the “cell growth (MTT, growth %)” value in test [1] was “grew slowly”. In test [2], the “migration capability (Transwell, metastasis %)” value was “relatively high migration capability”.

The values are drawn from patent US12370162B1 (Rplushealth Limited, priority 2024, dated 2025).
